Test results: patent publication US20240057606A1, “MOLECULES HAVING CERTAIN PESTICIDAL UTILITIES, AND INTERMEDIATES, COMPOSITIONS, AND PROCESSES RELATED THERETO” (priority 2020, published 2024)

Legend:
Format in all cases: in vivo
[1] = test system: Beet Armyworm (Spodoptera exigua, "BAW"); experiment: Bioassay on beet armyworm, 128-well diet tray assay; details: 168 h, 50 μg/cm^2 of test compound on artificial diet, second instar larvae, 25° C., five to seven days, average of eight wells, read-out: BAW % Control (or Mortality) rating
Method: (§1) Bioassays on Beet Armyworm (Spodoptera exigua, “BAW”) and Cabbage Looper (Trichoplusia ni, “CL”)
(§2) Certain molecules disclosed in this document were tested against BAW and CL using procedures described in the following examples. In the reporting of the results, the “BAW & CL Rating Table” was used (See Table Section).
Bioassays on BAW were conducted using a 128-well diet tray assay. one to five second instar BAW larvae were placed in each well (3 mL) of the diet tray that had been previously filled with 1 mL of artificial diet to which 50 μg/cm^2 of the test compound (dissolved in 50 μL of 90:10 acetone-water mixture) had been applied (to each of eight wells) and then allowed to dry. Trays were covered with a clear self-adhesive cover and held at 25° C., 14:10 light-dark cycle for five to seven days. Percent mortality was recorded for the larvae in each well; activity in the eight wells was then averaged. The results are indicated in the table entitled “Table ABC: Biological Results” (See Table Section).

[2] = test system: Cabbage Looper (Trichoplusia ni, "CL"); experiment: Bioassay on cabbage looper, 128-well diet tray assay; details: 168 h, 50 μg/cm^2 of test compound on artificial diet, second instar larvae, 25° C., five to seven days, average of eight wells, read-out: CL % Control (or Mortality) rating
Method: as §1, §2
Bioassays on CL were conducted using a 128-well diet tray assay. one to five second instar CL larvae were placed in each well (3 mL) of the diet tray that had been previously filled with 1 mL of artificial diet to which 50 μg/cm^2 of the test compound (dissolved in 50 μL of 90:10 acetone-water mixture) had been applied (to each of eight wells) and then allowed to dry. Trays were covered with a clear self-adhesive cover and held at 25° C., 14:10 light-dark cycle for five to seven days. Percent mortality was recorded for the larvae in each well; activity in the eight wells was then averaged. The results are indicated in the table entitled “Table ABC: Biological Results” (See Table Section).

[3] = test system: Yellow Fever Mosquito (Aedes aegypti, "YFM"); experiment: Bioassay on yellow fever mosquito larvae, 96-well plate assay; details: 4000 ppm DMSO master solution diluted with 90:10 water:acetone; about 1 day-old larvae; room temperature; scored after 3 days
Method: Bioassays On Yellow Fever Mosquito (Aedes aegypti, “YFM”)
Certain molecules disclosed in this document were tested against YFM using procedures described in the following paragraph. In the reporting of the results, the “YFM Rating Table” was used (See Table Section).
Master plates containing 400 μg of a molecule dissolved in 100 μL of dimethyl sulfoxide (DMSO) (equivalent to a 4000 ppm solution) are used. A master plate of assembled molecules contains 15 μL per well. To this plate, 135 μL of a 90:10 water:acetone mixture is added to each well. A robot (Biomek® NXP Laboratory Automation Workstation) is programmed to dispense 15 μL aspirations from the master plate into an empty 96-well shallow plate (“daughter” plate). There are 6 reps (“daughter” plates) created per master. The created daughter plates are then immediately infested with YFM larvae.
The day before plates are to be treated, mosquito eggs are placed in Millipore water containing liver powder to begin hatching (4 g. into 400 mL). After the daughter plates are created using the robot, they are infested with 220 μL of the liver powder/larval mosquito mixture (about 1 day-old larvae). After plates are infested with mosquito larvae, a non-evaporative lid is used to cover the plate to reduce drying. Plates are held at room temperature for 3 days prior to grading. After 3 days, each well is observed and scored based on mortality.

Compound | mortality at 50 µg/cm2 [1] | mortality at 50 µg/cm2 [2] | YFM % Control (or Mortality) rating [3]
O=C(/N=C1\SCC(=O)N1c1cccc2c1COC2=O)Nc1ccc(-c2ncn(-c3ccc(OC(F)(F)F)cc3)n2)cc1F [F19, (Z)-1-(2-Fluoro-4-(1-(4-(trifluoromethoxy)phenyl)-1H-1,2,4-triazol-3-yl)phenyl)-3-(4-oxo-3-(1-oxo-1,3-dihydroisobenzofuran-4-yl)thiazolidin-2-ylidene)urea] | 50 to 100% | 0% | D (No activity noticed in this bioassay)
O=C(/N=C1\SCC(=O)N1c1cccc2occc12)Nc1ccc(-c2ncn(-c3ccc(C(F)(F)C(F)(F)F)cc3)n2)cc1F [F20, (Z)-1-(3-(Benzofuran-4-yl)-4-oxothiazolidin-2-ylidene)-3-(2-fluoro-4-(1-(4-(perfluoroethyl)phenyl)-1H-1,2,4-triazol-3-yl)phenyl)urea] | 50 to 100% | 50 to 100% | D (No activity noticed in this bioassay)
O=C(/N=C1\SCC(=O)N1c1cccc2ncccc12)Nc1ccc(-c2ncn(-c3ccc(C(F)(F)F)cc3)n2)cc1F [F33, (Z)-1-(2-Fluoro-4-(1-(4-(trifluoromethyl)phenyl)-1H-1,2,4-triazol-3-yl)phenyl)-3-(4-oxo-3-(quinolin-5-yl)thiazolidin-2-ylidene)urea] | 50 to 100% | 50 to 100% | A (80-100)
Cn1ccc2c(N3C(=O)CS/C3=N\C(=O)Nc3ccc(-c4ncn(-c5ccc(OC(F)(F)F)cc5)n4)cc3F)cccc21 [F15, (Z)-1-(2-Fluoro-4-(1-(4-(trifluoromethoxy)phenyl)-1H-1,2,4-triazol-3-yl)phenyl)-3-(3-(1-methyl-1H-indol-4-yl)-4-oxothiazolidin-2-ylidene)urea] | 50 to 100% | 50 to 100% | A (80-100)
Cn1ccc2ccc(N3C(=O)CS/C3=N\C(=O)Nc3ccc(-c4ncn(-c5ccc(OC(F)(F)F)cc5)n4)cc3F)cc21 [F14, (Z)-1-(2-Fluoro-4-(1-(4-(trifluoromethoxy)phenyl)-1H-1,2,4-triazol-3-yl)phenyl)-3-(3-(1-methyl-1H-indol-6-yl)-4-oxothiazolidin-2-ylidene)urea] | 50 to 100% | 50 to 100% | A (80-100)
Cc1cc(-c2ncn(-c3ccc(OC(F)(F)C(F)(F)F)cc3)n2)ccc1NC(=O)/N=C1\SCC(=O)N1c1ccc2ccccc2c1 [F29, (Z)-1-(2-Methyl-4-(1-(4-(perfluoroethoxy)phenyl)-1H-1,2,4-triazol-3-yl)phenyl)-3-(3-(naphthalen-2-yl)-4-oxothiazolidin-2-ylidene)urea] | 50 to 100% | 50 to 100% | D (No activity noticed in this bioassay)
O=C(/N=C1\SCC(=O)N1c1cccc2ccccc12)Nc1ccc(-c2ncn(-c3ccc(OC(F)(F)F)cc3)n2)cc1F [F16, (Z)-1-(2-Fluoro-4-(1-(4-(trifluoromethoxy)phenyl)-1H-1,2,4-triazol-3-yl)phenyl)-3-(3-(naphthalen-1-yl)-4-oxothiazolidin-2-ylidene)urea] | 50 to 100% | 50 to 100% | A (80-100)
O=C(/N=C1\SCC(=O)N1c1ccc2ccccc2c1)Nc1ccc(-c2ncn(-c3ccc(OC(F)(F)F)cc3)n2)cc1F [F13, (Z)-1-(2-Fluoro-4-(1-(4-(trifluoromethoxy)phenyl)-1H-1,2,4-triazol-3-yl)phenyl)-3-(3-(naphthalen-2-yl)-4-oxothiazolidin-2-ylidene)urea] | 50 to 100% | 50 to 100% | D (No activity noticed in this bioassay)
Cc1cc(-c2ncn(-c3ccc(OC(F)(F)C(F)(F)F)cc3)n2)ccc1NC(=O)/N=C1\SCC(=O)N1c1cccc2ncccc12 [F32, (Z)-1-(2-Methyl-4-(1-(4-(perfluoroethoxy)phenyl)-1H-1,2,4-triazol-3-yl)phenyl)-3-(4-oxo-3-(quinolin-5-yl)thiazolidin-2-ylidene)urea] | 50 to 100% | 50 to 100% | A (80-100)
CN1CCOc2c1cccc2N1C(=O)CS/C1=N\C(=O)Nc1ccc(-c2ncn(-c3ccc(OC(F)(F)F)cc3)n2)cc1F [F12, (Z)-1-(2-Fluoro-4-(1-(4-(trifluoromethoxy)phenyl)-1H-1,2,4-triazol-3-yl)phenyl)-3-(3-(4-methyl-3,4-dihydro-2H-benzo[b][1,4]oxazin-8-yl)-4-oxothiazolidin-2-ylidene)urea] | 50 to 100% | 50 to 100% | A (80-100)
O=C(/N=C1\SCC(=O)N1c1cccc2ccoc12)Nc1ccc(-c2ncn(-c3ccc(C(F)(F)C(F)(F)F)cc3)n2)cc1F [F21, (Z)-1-(3-(Benzofuran-7-yl)-4-oxothiazolidin-2-ylidene)-3-(2-fluoro-4-(1-(4-(perfluoroethyl)phenyl)-1H-1,2,4-triazol-3-yl)phenyl)urea] | 50 to 100% | 50 to 100% | A (80-100)
Cc1cc(-c2ncn(-c3ccc(OC(F)(F)C(F)(F)F)cc3)n2)ccc1NC(=O)/N=C1\SCC(=O)N1c1cccc2ccoc12 [F23, (Z)-1-(3-(Benzofuran-7-yl)-4-oxothiazolidin-2-ylidene)-3-(2-methyl-4-(1-(4-(perfluoroethoxy)phenyl)-1H-1,2,4-triazol-3-yl)phenyl)urea] | 50 to 100% | 50 to 100% | A (80-100)
Cc1cc(-c2ncn(-c3ccc(OC(F)(F)C(F)(F)F)cc3)n2)ccc1NC(=O)/N=C1\SCC(=O)N1c1cccc2occc12 [F22, (Z)-1-(3-(Benzofuran-4-yl)-4-oxothiazolidin-2-ylidene)-3-(2-methyl-4-(1-(4-(perfluoroethoxy)phenyl)-1H-1,2,4-triazol-3-yl)phenyl)urea] | 50 to 100% | 50 to 100% | A (80-100)
Cc1cc(-c2ncn(-c3ccc(OC(F)(F)C(F)(F)F)cc3)n2)ccc1NC(=O)/N=C1\SCC(=O)N1c1cccc2c1ccn2C [F27, (Z)-1-(3-(1-Methyl-1H-indol-4-yl)-4-oxothiazolidin-2-ylidene)-3-(2-methyl-4-(1-(4-(perfluoroethoxy)phenyl)-1H-1,2,4-triazol-3-yl)phenyl)urea] | 50 to 100% | 50 to 100% | A (80-100)
